Source: US8710064B2, “2-aryl-4-quinazolinones and their pharmaceutical compositions” (China Medical University, priority 2011, dated 2014)

Tests used:
[1] = test system: U87 human glioma cell lines; assay: MTS cell viability assay, U87 glioma cells; assay type: cell-based; conditions: 48 hours, mean±SEM, n=3
Experimental: The human glioma cell lines U87, U251, T98G, U373, and rat glioma cell line RT2 provided by Dr. Michael Hsiao (Genomics Research Center, Academia Sinica, Taiwan) were cultured in Dulbecco's Modified Eagle medium (DMEM) (Caisson) supplemented with 10% fetal bovine serum (FBS) (Sigma-Aldrich), 2 mM L-glutamine (Caisson), 100 U/ml penicillin, and 100 μg/ml streptomycin (Caisson). The rat glioma C6 cell line provided by Dr. Shun-Fen Tzeng (National Cheng Kung University, Taiwan) was cultured in DMEM/F12 (Caisson) supplemented with 10% fetal bovine serum, 2 mM L-glutamine, 100 U/ml penicillin, and 100 μg/ml streptomycin. The human normal glia cell line SVGP12, kindly provided by Dr. Michael Hsiao, was cultured in Minimum Essential Medium (MEM) (Invitrogen) supplemented with 10% fetal bovine serum, 2 mM L-glutamine, 100 U/ml penicillin, and […]. Primary glia cells were prepared by surgery. Cerebral cortices without meninges were dissected from postnatal (P0-P2) Sprague-Dawley (SD, NCKU Laboratory Animal Center) rats and dissociated in 0.05% trypsin-EDTA (Biowest) at 37° C. for 10 min. Culture medium was added and pipetted for several times, and supernatant was removed after a centrifugation at 1,000 rpm for 5 minutes. […]
Cell proliferation was determined by MTS (tetrazolium compound, 3-(4,5-dimethylthiazol-2-yl)-5-(3-carboxymethoxyphenyl)-2-(4-sulfophenyl)-2H-tetrazolium) assay (Promega). […] The absorbance of soluble formazan was measured at 490 nm with microplate reader (Molecular device). The cell viability was determined by the percentage of the absorption relative to untreated control. […]
To investigate the effect of 2-aryl-4-quinazolinone in accordance with the present invention on cell proliferation, glioma cell lines were treated with MJ-66, MJ-68, or MJ-78. […] The cell viability of each group was analyzed by MTS assay (mean±SEM, n=3).

U87 glioma cells = assay: trypan blue exclusion cell death assay, U87 glioma cells; assay type: cell-based, human; conditions: 60 nM, at the 48th hour, p<0.05 versus control
Experimental: Cell viability was also determined by trypan-blue exclusion assay. Cells were seeded in 6-well plates (2×10^4/well) for trypan blue exclusion assay, and incubated for 24 hours at 37° C. Culture medium containing test compound or DMSO (0.006%) was added to each well, and cells were incubated at 37° C. At indicated time points (0, 24, 48, 72 and 96 hr), cells were suspended with 0.05% trypsin-EDTA, and stained with trypan-blue dye (0.4%) (Sigma). The cell viability was evaluated by the percentage of death relative to the total cell, and cell growth curve was determined by number of live cells relative to the total number of cells.
To investigate the glioma cell death induced by MJ-66, cell viability was assessed by trypan blue exclusion assay. C6 and U87 glioma cells treated with MJ-66 (30, 60, 90 nM) or DMSO (0.009%) for 0, 24, 48, 72 and 96 hours (hr) were observed under bright field microscope (FIG. 4A). The percentages of cell death and cell growth curve were determined by trypan blue assay followed by cell counting (mean±SEM, n=3). Relative to total cell number, trypan blue positive cells were defined as dead cells.

[2] = test system: U87 human glioma xenograft; assay: in vivo xenograft animal model; set-up: species or system nude mice; conditions: 1.36 microgram/kg intra-tumor every 2 days for 10 times, after 40 days
Experimental: For tumorigenesis, U87 glioma cells (1×10^6 cells per 100 μl PBS) were inoculated subcutaneously into the right flank of 8-to-10-week-old male nude mice (BALB/cAnN-Foxnlnu/CrlNarl mice, National Laboratory Animal Center, Taiwan). Tumor growth was measured every three days. Tumor volume was calculated by volume (mm^3)=[…] (Zhou, Y. H., Wu, X., Tan, F., Shi, Y. X., Glass, T., Liu, T. J., Wathen, K., Hess, K. R., Gumin, J, Lang, F., et al. (2005). PAX6 suppresses growth of human glioblastoma cells. J Neurooncol 71, 223-229). When the tumors reached a mean volume of 50 to 70 mm^3, MJ-66 (1.36 microgram/kg in saline) or vehicle (DMSO or saline) was injected intratumor once per two days during 20 days.
Since MJ-66 was able to effectively cause glioma to undergo mitotic catastrophe in vitro, whether MJ-66 could inhibit tumor growth in vivo was further examined by U87 human glioma xenograft animal model. Approximately 1×10^6 U87 glioma cells were injected subcutaneously into the nude mice and when tumors size reached 50 to 200 mm^3 in volume, MJ-66 (1.36 microgram/kg in saline) or vehicle (DMSO or saline denoted respectively as DMSO and Control) was administered by intra-tumor every 2 days for 10 times and tumor volume was measured for 50 days. Tumor growth was observed every three days.

Question: O=c1[nH]c(-c2cccc3ccccc23)nc2ccc(N3CCCC3)cc12 [Compound 23, 6-(Pyrrolidin-1-yl)-2-(naphthalen-1-yl)quinazolin-4-one] was tested. Which IC50 [1] did it give?
Answer: The IC50 was 54 ± 10 nM.

Question: What about the “percentage of dead cells, U87” value (U87 glioma cells) of the same molecule?
Answer: Its value is “significantly induced”.

Question: What about the tumor growth [2] of the same molecule?
Answer: Its tumor growth is “significantly inhibited”.

Question: And the tumor volume ([2]; N=8, p<0.01)?
Answer: Its tumor volume is 435.1 mm^3.
